This passage reports IC50 results from patent US20240174634A1, “Aldehyde Dehydrogenase Inhibitors and Their Therapeutic Use” (priority 2020, published 2024).

A value given as a limit tells only on which side of the number the result lay.

The experiment has as its target T1, ALDH1A3 (Homo sapiens, UniProt P47895).
T1 sequence (P47895 1-512): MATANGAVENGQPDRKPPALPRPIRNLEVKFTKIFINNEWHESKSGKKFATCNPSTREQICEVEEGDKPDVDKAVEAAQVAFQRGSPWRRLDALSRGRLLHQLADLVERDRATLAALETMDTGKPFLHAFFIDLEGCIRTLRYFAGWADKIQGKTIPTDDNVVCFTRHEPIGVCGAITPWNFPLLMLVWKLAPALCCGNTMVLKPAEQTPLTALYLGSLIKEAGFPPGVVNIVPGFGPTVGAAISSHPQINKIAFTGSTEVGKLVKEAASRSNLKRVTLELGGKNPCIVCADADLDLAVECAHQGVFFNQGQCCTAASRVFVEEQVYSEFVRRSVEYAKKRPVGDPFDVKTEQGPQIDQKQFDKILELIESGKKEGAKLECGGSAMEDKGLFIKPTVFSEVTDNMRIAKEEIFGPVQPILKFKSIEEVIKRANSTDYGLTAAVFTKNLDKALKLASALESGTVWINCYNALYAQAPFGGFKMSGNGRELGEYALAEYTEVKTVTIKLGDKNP
In words: Primary biochemical assay, NAD(P)H-Glo Detection System. Particulars: 30 min pre-incubation, propionaldehyde and NAD at Km. Also noted: His-tag; made in house; host or cells: E. coli Rosetta (DE3). The essentials:
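Recombinant full-length His-tagged human enzymes expressed in E. coli were pre-incubated 30 min at room temperature with compound (10-point, 3-fold series; top 20 μM for ALDH1A3, 250 μM for ALDH1A1/1A2). Propionaldehyde and NAD were then added at Km; NADH was read by NAD(P)H-Glo luminescence. Buffer: Tris (pH 7.6 for 1A1/1A2, 9.0 for 1A3), 1 mM TCEP, 0.01% Tween-20.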
The IC50 is the concentration at which inhibition is half-maximal. Low values mean inhibition by little substance, high ones a need for much substance. Consider `O=C1CSc2cc(OCCN3CCCC3c3cccc(F)c3)ccc2N1` (stereo not shown) [ALDHI-2008, 7-[2-[2-(3-fluorophenyl)pyrrolidin-1-yl]ethoxy]-4H-1,4-benzothiazin-3-one], for which the 50% inhibitory concentration (IC50) was under 100 nM.
`O=C1CCc2cc(NC(=O)c3c[nH]nc3-c3cccc(F)c3)ccc2N1` [ALDHI-1006, 3-(3-fluorophenyl)-N-(2-oxo-1,2,3,4-tetrahydroquinolin-6-yl)-1H-pyrazole-4-carboxamide] had an IC50 of 100 to 1000 nM.
Molecule `O=C1CCc2cc(NC(=O)c3ncsc3-c3cccc(F)c3)ccc2N1` [ALDHI-1014, 5-(3-fluorophenyl)-N-(2-oxo-3,4-dihydro-1H-quinolin-6-yl)thiazole-4-carboxamide] gave an IC50 of 100 to 1000 nM.
With `O=C1CCc2cc(OCCN3CCCC3c3ccncc3)ccc2N1` (stereo not shown) [ALDHI-2004, 6-[2-[2-(4-pyridyl)pyrrolidin-1-yl]ethoxy]-3,4-dihydro-1H-quinolin-2-one] the figure was 100 to 1000 nM.
`O=C1CCc2cc(OCCN3CCCC3c3cccs3)ccc2N1` (stereo not shown) [ALDHI-2013, 6-[2-[2-(2-thienyl)pyrrolidin-1-yl]ethoxy]-3,4-dihydro-1H-quinolin-2-one] showed an IC50 of under 100 nM.
`O=C1CCc2cc(NC(=O)c3ncsc3-c3ccsc3)ccc2N1` [ALDHI-1011, N-(2-oxo-3,4-dihydro-1H-quinolin-6-yl)-5-(3-thienyl)thiazole-4-carboxamide] yielded a concentration for half-maximal inhibition (IC50) of 100 to 1000 nM.
With `Cc1noc(-c2ccccc2C(=O)Nc2ccc3c(c2)CCC(=O)N3)n1` [ALDHI-1008, 2-(3-methyl-1,2,4-oxadiazol-5-yl)-N-(2-oxo-1,2,3,4-tetrahydroquinolin-6-yl)benzamide] the figure was 100 to 1000 nM.
The molecule `CN(C)c1nc(-c2cccc(F)c2)c(C(=O)Nc2ccc3c(c2)CCC(=O)N3)s1` [ALDHI-1002, 2-(dimethylamino)-4-(3-fluorophenyl)-N-(2-oxo-3,4-dihydro-1H-quinolin-6-yl)thiazole-5-carboxamide] registered an IC50 of under 100 nM.
As to `O=C1CCCc2cc(OCCN3CCCC3c3cccc(F)c3)ccc2N1` (stereo not shown) [ALDHI-2020, 7-[2-[2-(3-fluorophenyl)pyrrolidin-1-yl]ethoxy]-1,3,4,5-tetrahydro-1-benzazepin-2-one], the IC50 was under 100 nM.
The molecule `O=C1COc2cc(NC(=O)c3scnc3-c3cccc(F)c3)ccc2N1` [ALDHI-1016, 4-(3-fluorophenyl)-N-(3-oxo-4H-1,4-benzoxazin-7-yl)thiazole-5-carboxamide] showed an IC50 of 100 to 1000 nM.
As for `O=C1CCc2cc(NC(=O)c3scnc3-c3cccs3)ccc2N1` [ALDHI-1023, N-(2-oxo-3,4-dihydro-1H-quinolin-6-yl)-4-(2-thienyl)thiazole-5-carboxamide], the figure is under 100 nM; as for `O=C1CCc2cc(NC(=O)c3sc(N4CCOCC4)nc3-c3cccc(F)c3)ccc2N1` [ALDHI-1001, 4-(3-fluorophenyl)-2-morpholino-N-(2-oxo-3,4-dihydro-1H-quinolin-6-yl)thiazole-5-carboxamide], under 100 nM; as for `O=C1CCc2cc(OCCN3CC(F)CC3c3cccc(F)c3)ccc2N1` (stereo not shown) [ALDHI-2052, 6-[2-[4-fluoro-2-(3-fluorophenyl)pyrrolidin-1-yl]ethoxy]-3,4-dihydro-1H-quinolin-2-one], under 100 nM.
Regarding `O=C1CCc2cc(NC(=O)c3sccc3-c3cccc(F)c3)ccc2N1` [ALDHI-1022, 3-(3-fluorophenyl)-N-(2-oxo-3,4-dihydro-1H-quinolin-6-yl)thiophene-2-carboxamide], the half-inhibitory concentration (IC50) is 100 to 1000 nM.
`Cn1cc(C2CCCN2CCOc2ccc3c(c2)SCC(=O)N3)cn1` (stereo not shown) [ALDHI-2026, 7-[2-[2-(1-methylpyrazol-4-yl)pyrrolidin-1-yl]ethoxy]-4H-1,4-benzothiazin-3-one]: the IC50 lay in the range of 100 to 1000 nM.
With `O=C1CCc2cc(NC(=O)c3sc(N4CCNCC4)nc3-c3cccc(F)c3)ccc2N1` [ALDHI-1005, 4-(3-fluorophenyl)-N-(2-oxo-3,4-dihydro-1H-quinolin-6-yl)-2-piperazin-1-yl-thiazole-5-carboxamide] the figure was under 100 nM.
For the molecule `O=C1CCc2cc(OCCN3CCC3c3cccc(F)c3)ccc2N1` (stereo not shown) [ALDHI-2021, 6-[2-[2-(3-fluorophenyl)azetidin-1-yl]ethoxy]-3,4-dihydro-1H-quinolin-2-one], the concentration for half-maximal inhibition (IC50) lay within 100 to 1000 nM.
With `O=C1CCc2cc(NC(=O)c3scnc3-c3cccc(F)c3)ccc2N1` [ALDHI-1003, 4-(3-fluorophenyl)-N-(2-oxo-3,4-dihydro-1H-quinolin-6-yl)thiazole-5-carboxamide], the 50% inhibitory concentration (IC50) was under 100 nM.
Regarding `O=C1CCc2cc(NC(=O)c3ccccc3-c3cccc(F)c3)ccc2N1` [ALDHI-1007, 3′-fluoro-N-(2-oxo-1,2,3,4-tetrahydroquinolin-6-yl)-[1,1′-biphenyl]-2-carboxamide], the IC50 fell in the range of 1000 to 10000 nM.
In turn, `Cc1ccccc1C1CCCN1CCOc1ccc2c(c1)CCC(=O)N2` (stereo not shown) [ALDHI-2012, 6-[2-[2-(o-tolyl)pyrrolidin-1-yl]ethoxy]-3,4-dihydro-1H-quinolin-2-one] showed a half-maximal inhibitory concentration (IC50) of 100 to 1000 nM.
`O=C1CCc2cc(OCCN3CCCC3c3ccccn3)ccc2N1` (stereo not shown) [ALDHI-2006, 6-[2-[2-(2-pyridyl)pyrrolidin-1-yl]ethoxy]-3,4-dihydro-1H-quinolin-2-one] displayed an IC50 of 100 to 1000 nM.
As for `Cc1cccc(-c2ncsc2C(=O)Nc2ccc3c(c2)CCC(=O)N3)c1` [ALDHI-1013, 4-(m-tolyl)-N-(2-oxo-3,4-dihydro-1H-quinolin-6-yl)thiazole-5-carboxamide], the figure is 1000 to 10000 nM; as for `O=C1CCc2cc(OCCN3CC(F)(F)CC3c3cccc(F)c3)ccc2N1` (stereo not shown) [ALDHI-2053, 6-[2-[4,4-difluoro-2-(3-fluorophenyl)pyrrolidin-1-yl]ethoxy]-3,4-dihydro-1H-quinolin-2-one], under 100 nM.
In turn, `O=C1CCc2cc(OCCN3CCCC3c3ccc(F)cc3)ccc2N1` (stereo not shown) [ALDHI-2003, 6-[2-[2-(4-fluorophenyl)pyrrolidin-1-yl]ethoxy]-3,4-dihydro-1H-quinolin-2-one] registered an IC50 of under 100 nM.
As for `Cc1cccc(C2CCCN2CCOc2ccc3c(c2)CCC(=O)N3)c1` (stereo not shown) [ALDHI-2011, 6-[2-[2-(m-tolyl)pyrrolidin-1-yl]ethoxy]-3,4-dihydro-1H-quinolin-2-one], the figure is 100 to 1000 nM; as for `O=C1CCc2cc(OCCN3CCCC3c3cccc(F)c3)ccc2N1` (stereo not shown) [ALDHI-2001, 6-[2-[2-(3-fluorophenyl)pyrrolidin-1-yl]ethoxy]-3,4-dihydro-1H-quinolin-2-one], under 100 nM; as for `CCC1Oc2cc(OCCN3CCCC3c3cccc(F)c3)ccc2NC1=O` (stereo not shown) [ALDHI-2045, 2-ethyl-7-[2-[2-(3-fluorophenyl)pyrrolidin-1-yl]ethoxy]-4H-1,4-benzoxazin-3-one], under 100 nM.
Molecule `O=c1ccc2cc(OCCN3CCCC3c3cccc(F)c3)ccc2[nH]1` (stereo not shown) [ALDHI-2022, 6-[2-[2-(3-fluorophenyl)pyrrolidin-1-yl]ethoxy]-1H-quinolin-2-one] had an IC50 of under 100 nM.
`O=C1CCc2cc(NC(=O)c3cncnc3-c3cccc(F)c3)ccc2N1` [ALDHI-1018, 4-(3-fluorophenyl)-N-(2-oxo-3,4-dihydro-1H-quinolin-6-yl)pyrimidine-5-carboxamide]: the 50% inhibitory concentration (IC50) was in the range of 100 to 1000 nM.
With `CN(CCOc1ccc2c(c1)CCC(=O)N2)Cc1cccnc1` [ALDHI-3010, 6-[2-[methyl(3-pyridylmethyl)amino]ethoxy]-3,4-dihydro-1H-quinolin-2-one] the figure was 100 to 1000 nM; with `O=C1CCc2cc(NC(=O)c3ncsc3-c3cccnc3)ccc2N1` [ALDHI-1010, N-(2-oxo-3,4-dihydro-1H-quinolin-6-yl)-5-(3-pyridyl)thiazole-4-carboxamide], 1000 to 10000 nM; with `C[C@H](c1ccccc1)N(CCO)CCOc1ccc2c(c1)CCC(=O)N2` [ALDHI-3006, 6-[2-[2-hydroxyethyl-[(1R)-1-phenylethyl]amino]ethoxy]-3,4-dihydro-1H-quinolin-2-one], 100 to 1000 nM.
With `O=C1CCc2cc(NC(=O)c3scnc3-c3ccccc3F)ccc2N1` [ALDHI-1021, 4-(2-fluorophenyl)-N-(2-oxo-3,4-dihydro-1H-quinolin-6-yl)thiazole-5-carboxamide] the figure was under 100 nM.
As for `O=C1CCc2cc(OCCN3CCCC3c3ccc(F)c(F)c3)ccc2N1` (stereo not shown) [ALDHI-2039, 6-[2-[2-(3,4-difluorophenyl)pyrrolidin-1-yl]ethoxy]-3,4-dihydro-1H-quinolin-2-one], the figure is under 100 nM.
As for `Cc1ccc(C2CCCN2CCOc2ccc3c(c2)CCC(=O)N3)cn1` (stereo not shown) [ALDHI-2030, 6-[2-[2-(6-methyl-3-pyridyl)pyrrolidin-1-yl]ethoxy]-3,4-dihydro-1H-quinolin-2-one], the 50% inhibitory concentration (IC50) fell in the range of 100 to 1000 nM.
With `CC1Cc2cc(OCCN3CCCC3c3cccc(F)c3)ccc2NC1=O` (stereo not shown) [ALDHI-2048, 6-[2-[2-(3-fluorophenyl)pyrrolidin-1-yl]ethoxy]-3-methyl-3,4-dihydro-1H-quinolin-2-one] the figure was under 100 nM; with `CN(CCOc1ccc2c(c1)CCC(=O)N2)C(=O)c1cccc(F)c1` [ALDHI-3008, 3-fluoro-N-methyl-N-[2-[(2-oxo-3,4-dihydro-1H-quinolin-6-yl)oxy]ethyl]benzamide], 100 to 1000 nM.
